Laboratory results: PubChem BioAssay AID179 (DTP/NCI, 2004)
“And” between values parts separate entries of the source, which are not always exact repeats. Equal values may be shown once. The source made the active and inactive calls.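 How the source made its calls: active means compounds giving half or more protection of infected cells from virus-caused growth loss, again on retest; inactive means the rest.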 Where a SMILES comes first, the peptide text is derived from it. The star is where a group is joined. Boc = CC(C)(C)OC(=O)*

Test system: CEM cells HIV-1 protection, formazan growth assay
Experiment: NCI AIDS Antiviral Assay
Conditions: for IC50: measured here: growth of uninfected CEM cells
Summary of the method: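 Human CEM cells, uninfected and HIV-1-infected, received five drug concentrations, and growth was read by soluble formazan assay. Compounds giving at least 50% protection were retested; reproducible 100% protection defined confirmed active.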

| SMILES | EC50 | IC50 | outcome |
| --- | --- | --- | --- |
| CCOC(=O)C(C)P(=O)(OC)OC (stereo unspecified) | > 200 µM | > 200 µM | – |
| CN1C(=O)CSC1=S | > 1700 µM | 4.79 µM and 36.3 µM | – |
| Brc1c2nc3ccccc3nc2n2ccc3ccccc3c12 | > 28.8 µM | > 28.8 µM | – |
| NC(=O)CC(NC(=O)OCc1ccccc1)C(=O)NC(Cc1ccccc1)C(=O)NC(Cc1ccccc1)NC(=O)C(Cc1c[nH]c2ccccc12)C(=O)O (stereo unspecified) | > 50.1 µM | > 50.1 µM | – |
| COc1cc(C2SC(N)=Nc3c2c(C)nn3C(=O)c2ccccc2O)cc(OC)c1OC (stereo unspecified) | > 20 µM | 0.457 µM | – |
| O=C1Oc2ccccc2C(=O)/C1=C/N1C(=O)/C(=C/c2ccc3c(c2)OCO3)SC1=S | > 200 µM | 20.4 µM | – |
| CC(=O)OC12c3ccccc3C(c3ccccc31)C1C(=O)N(c3ccccn3)C(=O)C12 (stereo unspecified) | > 200 µM | > 200 µM | – |
| CCC1=C(C)c2cc3[n-]c(cc4nc(cc5[n-]c(cc1n2)c(C)c5CCC(=O)OC)C(CCC(=O)OC)=C4C)c(C)c3CC.[Cu+2] | – | – | inactive |
| CC(C)C1CC(CO)(CNc2nc(N)nc(Cl)c2C=O)C1 (stereo unspecified) | > 200 µM | 1.78 µM | – |
| COC(=O)CCCc1c(-c2[nH]c3ccccc3c2CCCC(=O)OC)[nH]c2ccccc12 | > 200 µM | > 200 µM | – |
| CC1CN2CCc3c([nH]c4ccccc34)C2C[C@@H]1CC(=O)N(C)C (stereo partly specified) | > 191 µM | > 191 µM | – |
| Cc1ccc(-n2c(C)n[nH]c2=O)cc1 | > 200 µM | > 200 µM | – |
| CCCCC1=C(C(=O)N2CCOCC2)C2(OCCO2)C1Cl (stereo unspecified) | > 58.9 µM | 10 µM | – |
| COc1ccc(Oc2ccccc2N)cc1 | – | – | inactive |
| Cc1nc2ccccc2c(N)c1-c1cc(C)c2c(C)nc3ccccc3c2n1 | > 200 µM | 3.89 µM | – |
| CC(=O)/C(=C/c1ccc(N(C)C)cc1)C(=O)c1ccccc1 | > 6.76 µM | > 6.76 µM | – |
| CCN(CC)C(=S)SCC(=O)Nc1nc2c(s1)CCCC2 | > 20.9 µM | > 20.9 µM | – |
| NC(=O)c1n[nH]c(C2OC(CO)C(O)C2O)n1 (stereo unspecified) | > 200 µM | 170 µM | – |
| O=S1(=O)CCCCS1 | > 200 µM | 5.37 µM | – |
| N.N.N.N.N.NC(=O)[O-].[Co+3].[I-] | – | – | inactive |
| CC1OC(OC2C(CO)OC(O[C@H]3CC[C@@]4(C)C(=CC[C@H]5[C@@H]6C[C@@H]7O[C@](O)(CC[C@@H](C)COC8OC(CO)C(O)C(O)C8O)[C@@H](C)[C@@H]7[C@@]6(C)CC[C@@H]54)C3)C(OC3OC(C)C(O)C(O)C3O)C2O)C(O)C(O)C1O (stereo partly specified) | > 200 µM | 1.86 µM | – |
| Cc1ccccc1C1(Br)C(=O)c2ccccc2C1=O | > 200 µM | 33.9 µM | – |

| SMILES | EC50 | IC50 | outcome |
| --- | --- | --- | --- |
| CCOC(=O)/C=C/CC(C)(C)COC(C)=O | – | – | inactive |
| OC1=CN=COc2ccccc21 | > 813 µM | 479 µM | – |
| CC(=O)OCC1OC(Nc2ccc3nc(C)n(-c4ccccc4)c(=O)c3c2)C(OC(C)=O)C(OC(C)=O)C1OC(C)=O (stereo unspecified) | > 100 µM | 61.7 µM | – |
| Cc1cc(NCCCCCCCCNc2cc(C)nc3cc(N)ccc23)c2ccc(N)cc2n1 | > 8.13 µM | 4.68 µM | – |
| CC(=O)CC(O)(C(F)(F)Cl)C(F)(Cl)Cl (stereo unspecified) | > 200 µM | > 200 µM | – |
| O=C1CC(c2ccccc2)NC(=O)N1CCN1CCOCC1 (stereo unspecified) | > 200 µM | > 200 µM | – |
| N#C/C(=C\c1cccc(OCc2ccccc2)c1)c1ccc([N+](=O)[O-])cc1 | > 200 µM | 151 µM | – |
| CC(=O)OCC1OC(Nc2[nH]c(=O)n(C)c(=O)c2-c2csc(N)n2)C(OC(C)=O)C(OC(C)=O)C1OC(C)=O (stereo unspecified) | – | – | inactive |
| CC1=Nc2cc(C)c(C)cc2NC(=O)C1 | > 200 µM | > 200 µM | – |
| COC(=O)C1CC(Sc2ccccc2)C(=O)C(C(=O)OC)C1 (stereo unspecified) | > 112 µM | 77.6 µM | – |
| O=C(O)C12CC3CC(CC(F)(C3)C1)C2 | > 912 µM | > 912 µM | – |
| C=C[C@@H]1c2ccccc2C=C[C@]1(CCC1(C)OCCO1)C1=NC(COC)[C@H](c2ccccc2)O1 (stereo partly specified) | > 8.13 µM | > 8.13 µM | – |
| CC1CN(c2cc3c(cc2F)c(=O)c(C(=O)O)cn3-c2ccc(N3CCN(C)CC3)cn2)CC(C)N1 (stereo unspecified) | > 145 µM | 123 µM | – |
| CCOC(=O)/C=C1\CONC(c2ccc(OC)cc2)=N1 | > 19.1 µM | > 19.1 µM | – |
| CCN(CC)CCOc1ccc(C(=C2CCCCC2)c2ccc(OCCN(CC)CC)cc2)cc1 | > 38.9 µM | 2.19 µM | – |
| COC(=O)c1c(CC(=O)O)oc2c1CCCC2 | – | – | inactive |
| S=c1[nH]c2cccc3c2n1C[C@@H]1CCCN1C3 | > 32.4 µM | 17 µM | – |
| O=C(Nc1nc(=S)c2c(ncn2CCO)[nH]1)c1ccccc1 | > 575 µM | 28.2 µM | – |
| Cc1cc(=O)oc(C)c1C(=O)O | > 200 µM | > 200 µM | – |
| O=S(=O)(O)c1ccc(Nc2ccnc3cc(Cl)ccc23)cc1 | > 200 µM | > 200 µM | – |
| N#Cc1c(-c2ccc(Cl)cc2)c(C#N)c(=O)n(NS(=O)(=O)c2ccccc2)c1-c1ccccc1 | > 151 µM | 32.4 µM | – |
| N=C(N)SCc1ccc2c(c1)Sc1ccccc1O2 | > 200 µM | 11.7 µM | – |

| SMILES | EC50 | IC50 | outcome |
| --- | --- | --- | --- |
| Cc1ccc(N2C(=O)C3c4[nH]c5ccc(C)cc5c4C4CCC(C(C)(C)C)CC4C3C2=O)cc1 (stereo unspecified) | > 200 µM | 13.8 µM | – |
| CC1(C)Oc2ccccc2OC1O (stereo unspecified) | > 200 µM | > 200 µM | – |
| N#C/C(=C\c1ccccc1Cl)c1ccccc1 | > 200 µM | 72.4 µM | – |
| COc1ccc(/C=C2\NC(=S)N(/C=C3\C(=O)Oc4ccccc4C3=O)C2=O)cc1OC | > 200 µM | > 200 µM | – |
| COc1c(OC)c(OC)c2c(=O)cc(-c3ccc(OC(C)=O)cc3)oc2c1OC | > 200 µM | 19.5 µM | – |
| CC(=O)CCN1CC2CN=NC2(C#N)C1 (stereo unspecified) | > 200 µM | 46.8 µM | – |
| CCOC(=O)[C@]12C3C=CC(C3)C1C(=O)C1OC12 (stereo partly specified) | > 562 µM | > 562 µM | – |
| COC1CCN(N(C)C)O1 (stereo unspecified) | > 200 µM | > 200 µM | – |
| CC(/C=C/C(=O)c1sc(C(N)=S)nc1C)=C\c1ccccc1 | > 79.4 µM | > 79.4 µM | – |
| CC(C)CCC[C@@H](C)C1CCC2[C@@H]3CC(OS(=O)(=O)O)C4C[C@@H](O)CC[C@]4(C)C3CC[C@@]21C (stereo partly specified) | > 49 µM | > 49 µM | – |
| CC1=C2C(=O)NN=C2CCN1c1ccc(Br)cc1 | > 200 µM | 34.7 µM | – |
| C1=NC(N(Cc2ccccc2)Cc2ccccc2)N(Cc2ccccc2)N1 (stereo unspecified) | > 52.5 µM | 32.4 µM | – |
| O=C1C=C(c2ccccc2)OC1(Cl)c1ccccc1 (stereo unspecified) | > 200 µM | 38 µM | – |
| Nc1nc(Cl)cc(NCC2(CO)CC(CCCc3ccccc3)C2)n1 (stereo unspecified) | > 20 µM | 0.0603 µM | – |
| CCOC(=O)/C(O)=C(\C=N\C(=S)Nc1ccc(Cl)c(Cl)c1)C(=O)OCC | > 200 µM | > 200 µM | – |
| Cc1nc(Nc2ccccc2Cl)sc1C(=O)CC(=O)C(N)=O | > 200 µM | > 200 µM | – |
| COc1ccc(/C=N/NS(=O)(=O)c2ccc(NC(C)=O)cc2)cc1 | > 525 µM | > 525 µM | – |
| CC(C)c1ccc(/C=C/c2cc(C(=O)NNC(=O)NC3CCCCC3)nc(=S)[nH]2)cc1 | > 6.17 µM | > 6.17 µM | – |
| O=C1NC2(CCCCC2)C(=O)N1CCN(CCCl)CCCl | > 372 µM | 269 µM | – |
| COc1cc(/C=C/c2ccnc3ccccc23)cc(OC)c1OC | > 200 µM | 1.48 µM | – |
| CC1(c2ccc(Cl)cc2)c2ccccc2C(=O)N1CCCN1C(=O)c2ccccc2C1=O (stereo unspecified) | > 200 µM | 195 µM | – |
| COc1ccc2c(NCCCCCCNc3c4ccccc4nc4cc(OC)ccc34)c3ccccc3nc2c1 | – | – | inactive |

| SMILES | EC50 | IC50 | outcome |
| --- | --- | --- | --- |
| O=C1NCC2(CCN(CCCC3(c4ccc(F)cc4)OCCO3)CC2)N1c1ccccc1 | > 200 µM | > 200 µM | – |
| CCOc1ccc(N=C2NC(=O)C(CC(=O)Nc3ccccc3[N+](=O)[O-])S2)cc1 (stereo unspecified) | > 316 µM | > 316 µM | – |
| CCCN(CCC)/N=C/c1c2c(O)c3c(O)c(C)c4c(c3c1O)C(=O)C(C)(O/C=C/C(OC)C(C)C(OC(C)=O)C(C)C(O)C(C)C(O)C(C)/C=C/C=C(C)C(=O)N2)O4 (stereo unspecified) | > 200 µM | 3.47 µM | – |
| COC(=O)c1oc([N+](=O)[O-])c(-c2ccccc2)c1-c1ccccc1 | > 57.5 µM | > 57.5 µM | – |
| CC1(C)CC(=O)C2=C(C1)Nc1ccccc1S2 | – | – | inactive |
| CCN(CC)C(=S)SS(=O)(=O)c1ccc(N)cc1 | > 200 µM | 56.2 µM | – |
| CNC(=O)CNC(=O)C(NC(=O)CNC(=O)C1CCCN1C(=O)C(C)NC(=O)C(NC(=O)OC(C)(C)C)C(C)C)C(C)C (stereo unspecified) (Boc-VAPGVG-NHMe; configuration not given here) | > 200 µM | > 200 µM | – |
| O=C1CCC/C1=C1/SS/C(=C2/CCCC2=O)S1 | > 200 µM | 102 µM | – |
| CCOC(=O)/C(=C\c1ccc(Cl)cc1)C(C)=O | > 372 µM | 64.6 µM | – |
| COC(=O)/C(C#N)=C(/NCc1ccccc1)Nc1ccccc1 | > 200 µM | 22.4 µM | – |
| COC1=CC(=Nc2c(Cl)cc(Cl)cc2OC(=O)c2ccc([N+](=O)[O-])cc2)C=C(OC)C1=O | – | – | inactive |
| CCOC(=O)C(Cc1c2ccccc2cc2ccccc12)(NC(C)=O)C(=O)OCC | > 200 µM | > 200 µM | – |
| CC[C@]12C=CCN3CCC4(c5cc([C@]6(C(=O)OC)C[C@H]7CN(CCc8c6[nH]c6ccccc86)CC6CCCCC67)c(OC)cc5N(C)C4[C@@](O)(C(=O)OC)C1OC(C)=O)[C@@H]32 (stereo partly specified) | > 89.1 µM | 1.7 µM | – |
| CC1(c2cccc([N+](=O)[O-])c2)C(C#N)C(=O)NC(=O)C1C#N (stereo unspecified) | > 417 µM | 245 µM | – |
| NS(=O)(=O)c1nnc(NC(=O)c2ccccc2)s1 | > 200 µM | > 200 µM | – |
| CC1(C)c2ccccc2C(C)(C)[N+]1(C)C | > 200 µM | 123 µM | – |
| C[Si](C)(/C(=C/COCc1ccccc1)CCOC1CCCCO1)c1ccccc1 (stereo unspecified) | > 9.12 µM | > 9.12 µM | – |
| C=CC1(C)CN(Cc2ccccc2)C(C(=O)OCC)O1 (stereo unspecified) | > 26.3 µM | > 26.3 µM | – |
| CCOC(=O)c1[nH]n(-c2ccccc2)c(=O)c1/C=N/C(=S)NCc1ccccc1 | > 200 µM | 44.7 µM | – |
